Among the test systems are MDA-MB-231 breast; SK-MEL-28 melanoma; CAKI-1 renal; HT29 colon; T-47D breast; MOLT-4 leukemia; MALME-3M melanoma; RXF 393 renal; SK-OV-3 ovarian; OVCAR-3 ovarian; CCRF-CEM leukemia.
Assay in all cases: growth of human tumour cells (NCI), 48 h

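Five concentrations, 48 hours, 96-well plates. At the GI50, growth is halved. The concentration for full growth arrest is given as TGI.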

In the case of `COc1ccc(OC)c(NS(=O)(=O)c2ccc3nc(C)n(NS(=O)(=O)c4cc(OC)ccc4OC)c(=O)c3c2)c1`, the TGI in the experiment with MDA-MB-231 breast was more than 100 µM; in the experiment on SK-MEL-28 melanoma, more than 100 µM; in the experiment with CAKI-1 renal it was more than 100 µM; with HT29 colon, more than 100 µM; with T-47D breast, more than 100 µM; with MOLT-4 leukemia, 62.7 µM. The TGI in the experiment with MALME-3M melanoma, in the experiment on RXF 393 renal, in the experiment with SK-OV-3 ovarian, in the experiment with OVCAR-3 ovarian and with CCRF-CEM leukemia was more than 100 µM throughout.

On to `CCOC(=O)CC(=O)Nc1cccc2[nH]cnc12`, for which the TGI in the experiment on MDA-MB-231 breast, in the experiment on SK-MEL-28 melanoma, in the experiment with CAKI-1 renal, in the experiment with HT29 colon, in the experiment with T-47D breast and with MOLT-4 leukemia was more than 100 µM each time. For the same compound, the TGI in the experiment on MALME-3M melanoma, in the experiment on RXF 393 renal, in the experiment on SK-OV-3 ovarian, with OVCAR-3 ovarian and in the experiment with CCRF-CEM leukemia was more than 100 µM each time.

Consider `C=C1C(=O)O[C@@H]2C=C(C)C3=CC(=O)[C@](C)(C[C@H](OC(=O)/C(C)=C\C)[C@@H]12)O3`, for which the TGI is 2.24 µM in the experiment with MDA-MB-231 breast; 3.03 µM with SK-MEL-28 melanoma; 1.38 µM in the experiment on CAKI-1 renal; 2.73 µM in the experiment on HT29 colon; 3.81 µM in the experiment with T-47D breast; 1.5 µM with MOLT-4 leukemia. Besides, the TGI in the experiment on MALME-3M melanoma was 7.5 µM; in the experiment with RXF 393 renal it was 1.52 µM; in the experiment on SK-OV-3 ovarian it was 16.8 µM; in the experiment with OVCAR-3 ovarian it was 1.71 µM; in the experiment on CCRF-CEM leukemia it was 0.82 µM. In addition, in the experiment with MOLT-4 leukemia, the GI50 was 0.353 µM.

As to `COc1cc2c(=O)cnoc2cc1O`, the TGI with MDA-MB-231 breast, in the experiment with SK-MEL-28 melanoma, in the experiment with CAKI-1 renal, in the experiment on HT29 colon, with T-47D breast and in the experiment on MOLT-4 leukemia was more than 100 µM throughout. Also, the TGI in the experiment on MALME-3M melanoma, in the experiment on RXF 393 renal, in the experiment with SK-OV-3 ovarian, in the experiment with OVCAR-3 ovarian and in the experiment on CCRF-CEM leukemia was more than 100 µM in each case.

`COc1cc2c(cc1OC)C1(COc3cc(O)c(O)c(O)c3C1=O)C2` (stereo not drawn): the TGI in the experiment on MDA-MB-231 breast, with SK-MEL-28 melanoma, in the experiment on CAKI-1 renal, in the experiment on HT29 colon, with T-47D breast and in the experiment with MOLT-4 leukemia was more than 50 µM throughout. Moreover, the TGI with MALME-3M melanoma, with RXF 393 renal, in the experiment on SK-OV-3 ovarian, with OVCAR-3 ovarian and in the experiment on CCRF-CEM leukemia was more than 50 µM each time.

For the compound `COc1ccc2cc(CN3CCC(C4CCNCC4)CC3)ccc2c1`, the TGI in the experiment on MDA-MB-231 breast amounted to 5.08 µM; in the experiment on SK-MEL-28 melanoma it was 3.27 µM; in the experiment on CAKI-1 renal, 6.03 µM; in the experiment on HT29 colon it was 2.65 µM; in the experiment with T-47D breast, 5.23 µM; in the experiment with MOLT-4 leukemia it was 4.84 µM. Besides, the TGI in the experiment with MALME-3M melanoma is 3.02 µM; in the experiment on RXF 393 renal, 5.19 µM; in the experiment with SK-OV-3 ovarian it was 23.4 µM; in the experiment with OVCAR-3 ovarian, 15.8 µM; with CCRF-CEM leukemia it was 12.7 µM.

As for `c1c[nH]c(C23C4C5C6C4C2C6C53)n1` (stereo not drawn), the TGI in the experiment on MDA-MB-231 breast, with SK-MEL-28 melanoma, in the experiment on CAKI-1 renal, in the experiment with HT29 colon, with T-47D breast and with MOLT-4 leukemia was more than 100 µM in each case. Further, the TGI in the experiment on MALME-3M melanoma, with RXF 393 renal, in the experiment with SK-OV-3 ovarian, in the experiment with OVCAR-3 ovarian and in the experiment on CCRF-CEM leukemia was more than 100 µM each time.

Consider `COC(=O)[C@H](Cc1c[nH]c2ccccc12)NC(=O)c1ccc(CNC(=O)/C=C/c2cccc(Oc3ccccc3)c2)cc1`, for which the TGI with MDA-MB-231 breast, in the experiment on SK-MEL-28 melanoma, with CAKI-1 renal, with HT29 colon, with T-47D breast and in the experiment with MOLT-4 leukemia was more than 100 µM throughout. Moreover, the TGI in the experiment on MALME-3M melanoma was more than 100 µM; in the experiment with RXF 393 renal it was 81.6 µM; with SK-OV-3 ovarian, more than 100 µM; in the experiment on OVCAR-3 ovarian, more than 100 µM; in the experiment on CCRF-CEM leukemia, more than 100 µM.

Take `CN(C)CCCn1nc(N)c2nc3cc(Cl)ccc3nc21`: the TGI in the experiment with MDA-MB-231 breast is more than 100 µM; in the experiment on SK-MEL-28 melanoma it was 35.7 µM; with CAKI-1 renal it was more than 100 µM; in the experiment with HT29 colon, more than 100 µM; in the experiment with T-47D breast, more than 100 µM; in the experiment with MOLT-4 leukemia it was more than 100 µM. The TGI in the experiment with MALME-3M melanoma is more than 100 µM; in the experiment with RXF 393 renal it was more than 100 µM; with SK-OV-3 ovarian, more than 100 µM; with OVCAR-3 ovarian, more than 100 µM; in the experiment with CCRF-CEM leukemia, 96.5 µM.

With `CCCCCCCCCCCCOCCCOP(=O)([O-])OCC[N+](C)(C)C`, the TGI is 40.1 µM in the experiment on MDA-MB-231 breast; more than 92.7 µM with SK-MEL-28 melanoma; 47.5 µM in the experiment with CAKI-1 renal; 61.7 µM with HT29 colon; 38 µM in the experiment with T-47D breast; 65.1 µM in the experiment with MOLT-4 leukemia. For the same compound, the TGI is more than 84.4 µM in the experiment with MALME-3M melanoma; more than 53.3 µM with RXF 393 renal; more than 100 µM with SK-OV-3 ovarian; more than 100 µM with OVCAR-3 ovarian; 70.2 µM in the experiment on CCRF-CEM leukemia.

As for `CCCCCCCCCCCCCCCC(=O)N(CCCCCCCCCCC(=O)O)CC(O)C(O)C(OC1OC(CO)C(O)C(O)C1O)C(O)CO` (stereo not drawn), the TGI is more than 100 µM in the experiment with MDA-MB-231 breast; 34.6 µM in the experiment on SK-MEL-28 melanoma; more than 100 µM in the experiment on CAKI-1 renal; 42.8 µM in the experiment on HT29 colon; more than 100 µM in the experiment with T-47D breast; 46.4 µM in the experiment on MOLT-4 leukemia. Also, the TGI was 36.3 µM in the experiment on MALME-3M melanoma; more than 100 µM in the experiment with RXF 393 renal; more than 100 µM in the experiment on SK-OV-3 ovarian; more than 100 µM in the experiment on OVCAR-3 ovarian; 45.7 µM with CCRF-CEM leukemia.

On to `CCN(CC)CCNC(=O)c1cn2c(ccc3sc4ccccc4c(=O)c32)n1`, for which the TGI in the experiment with MDA-MB-231 breast came out at 27.5 µM; with SK-MEL-28 melanoma, 25.6 µM; with CAKI-1 renal, 24.2 µM; in the experiment with HT29 colon it was 20.4 µM; with T-47D breast, 30 µM; with MOLT-4 leukemia, 11.9 µM. For the same compound, the TGI with MALME-3M melanoma came to 26.9 µM; with RXF 393 renal it was 24.2 µM; in the experiment with SK-OV-3 ovarian, 25.5 µM; with OVCAR-3 ovarian, 26.7 µM; in the experiment with CCRF-CEM leukemia, 25.3 µM.

The values are drawn from PubChem BioAssay (NCI).
